The record followed here is patent publication US5273985A, “Glycerin derivative and its pharmacological use” (Eisai Co., Ltd., priority 1988, dated 1993).

Structures are written as SMILES.

Series [1] can be described thus: Determination of stability in aqueous solution. Type of series: physicochemical. The conditions noted are these: pH 7.4, 37° C., 0.5M sodium phosphate; for half-life: read-out: Half-value period of disappearance due to hydrolysis (t1/2) (converted). The protocol:
Determination of Stability in Aqueous Solution
These compounds were unstable in a neutral or alkaline aqueous solution mainly due to the hydrolysis reaction of the N-acetyl or N-benzoyl group. The relationships between the pH and decomposition rate of several compounds were examined to find that they have the same pattern. The decomposition rate constant under conditions (pH 7.4, 37° C.) where they were relatively easily decomposed was determined and the stabilities of the compounds were compared with one another.
9 parts by volume of a buffer solution (0.5M sodium phosphate, pH 7.4) was added to 1 part by volume of an aqueous sample solution (1 mg/ml) and the mixture was kept at 37° C. The sampling was conducted at appropriate time intervals and the residual rate of an unreacted compound was determined by reversed phase high-performance liquid chromatography. Since the decomposition rate of most of the compounds can be approximately represented by the first-order decomposition rate equation, the decomposition rate constant was determined by the least squares method.

Series [2] concerns blood pressure drop induced by PAF. The series can be described thus: Action on the blood pressure drop induced by PAF. Conditions: Rattus norvegicus, iv, 0.05 h, i.v., three minutes after 0.5 μg/kg PAF, ratio of blood pressure rise to drop, read-out: Recovery rate. Type of series: in vivo, F344 rats. The protocol: Action on the Blood Pressure Drop Induced by […]
Cannulae were inserted into the carotid and the jugular of each of F344 rats anesthetized with Pento (50 mg/kg, i. p.). The blood pressure was determined at the carotid and 0.5 ml/kg of PAF or the test compound was given through the jugular. Three minutes after the injection of 0.5 μg/kg of PAF, the test compound was given and the antagonism thereof was evaluated.
The recovery rate shown in Table 4 is the ratio of the blood pressure rise by the test compound to the drop thereof.

For a further series, the target named is T1, Human PAF Receptor (Homo sapiens, UniProt P25105).
T1 construct: The platelets were sampled from healthy males by an ordinary method; endogenous in cells; host or cells: human platelets from healthy males (intact platelet suspension)
T1 sequence (P25105 whole entry): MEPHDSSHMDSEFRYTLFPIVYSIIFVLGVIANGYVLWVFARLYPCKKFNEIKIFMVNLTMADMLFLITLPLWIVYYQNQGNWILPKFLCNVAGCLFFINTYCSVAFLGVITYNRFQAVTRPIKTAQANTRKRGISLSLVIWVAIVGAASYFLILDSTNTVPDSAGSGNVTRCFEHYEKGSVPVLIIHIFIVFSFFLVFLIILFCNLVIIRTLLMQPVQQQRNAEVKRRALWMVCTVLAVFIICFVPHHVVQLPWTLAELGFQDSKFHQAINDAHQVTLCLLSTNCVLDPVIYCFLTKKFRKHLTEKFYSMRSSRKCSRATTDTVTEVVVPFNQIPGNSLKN
The series can be described thus: Human PAF receptor binding assay (3H-PAF, platelets). The conditions noted are these: 3H-PAF 0.6 to 1 nM, 37° C., read-out: PAF receptor antagonism IC50. The protocol:
Human PAF Receptor Binding Assay
The platelets were sampled from healthy males by an ordinary method and suspended in a binding buffer [10 mM phosphate-buffered saline (pH 7.0) containing 0.1 w/v % of BSA and 0.9 mM of CaCl2) to form a suspension having a concentration of 10^8 /460 μl. 20 μl of a solution of the test compound in the binding buffer was placed in a polypropylene tube and then 460 μl of the platelet suspension was added thereto. The mixture was subjected to a vortex treatment and then incubated at 37° C. for 6 min. 20 μl of a solution of ^3 H-PAF in the binding buffer (final ^3 H-PAF concentration: 0.6 to 1 nM) was added thereto and the mixture was incubated for 6 min. 3 ml of a washing solution (saline containing 0.1 w/v % of BSA) cooled with ice was added thereto to terminate the reaction. The reaction mixture was filtered by suction through a glass filter (Whatman GF/C). The glass filter was dried and the radioactivity thereof was determined with a liquid scintillation counter.
The inhibition % was calculated according to the following equation and IC50 so was determined by interpolation from the figure. [formula] wherein: total binding: dpm obtained when the concentration of the medicine or PAF is 0,
non-specific binding: dpm obtained when 10^-5 M of cold PAF was added.

The test system of series [3] is platelet agglutination caused by PAF. The series can be described thus: Inhibition of platelet agglutination caused by human PAF (platelet-rich plasma, optical method of Born). Type of series: cell-based. The conditions noted are these: PAF at minimum concentration for maximum agglutination, read-out: Agglutination inhibiting activity IC50. On the procedure:
Effect on the Agglutination Caused by Human PAF
One part by volume of a 3.8% sodium citrate solution was added to 9 parts by volume of blood sampled from the forearm of a healthy adult to whom had been administered no medicine for at least two weeks. A platelet-rich plasma (PRP) was prepared by centrifugation. The inhibition of the platelet agglutination was determined by an optical method of Born et al. with a Hematolaser II® (a platelet agglutination meter of Niko Bioscience Co.). PAF was dissolved in Tyrode solution [Ca^++ (+)] to form a solution having the minimum concentration for causing the maximum agglutination. The test compound was dissolved in a physiological saline.
The agglutination inhibiting activity of the test compound was determined from the rate of inhibition of the maximum light transmittance (maximum agglutination rate) caused by PAF in control PRP. IC50 was determined from the inhibition curve.
The numeral in the column of the Test compound in Table 1 refers to the Example number of the compound.

In the next series the test system is lethal activity of PAF. Nature of the series: Preventive effect against the lethal activity of PAF. Type of series: in vivo, ICR male mice. The conditions noted are these: 15 minutes before PAF i.v.; for number of dead mice / number of mice (Survival rate): after one hour; for Survival rate: survival after one hour. The protocol:
Preventive Effect Against the Lethal Activity of PAF:
A physiological saline or the test compound was given to ICR male mice weighing around 30 g by intravenous injection. After 15 minutes, 100 wg/kg of PAF was given to them by intravenous injection. Life and death of them were examined after one hour and the survival rate was determined.
The survival rate is given by percentage. The denominator of the fraction
is the number of the mice and the numerator is the number of the dead

In general, IC50 refers to the midpoint of a concentration-inhibition curve. Regarding `CCCCCCCCCCCCCCCCCCOC(=O)N1CCN(C(=O)OCC(COC(=O)N(Cc2cccc[n+]2CC)C(=O)c2ccccc2OC)OC)CC1` (stereo not drawn) [Example 6, 1-Ethyl-2-[N-(2-methoxy)benzoyl-N-{2-methoxy-3-(4-octadecyloxycarbonyl)piperazylcarbonyloxy}propoxycarbonyl]aminomethylpyridinium chloride], in series [1], the half-life was 28.2 h. In series [2], the inhibition in vivo at 0.01 mg/kg was 88.5%. Further, the values for the IC50 (on Human PAF Receptor; in series [3]) were 0.19 nM and 160 nM, respectively.

As for `CCCCCCCCCCCCCCCCCCNC(=O)OCCCNC(=O)OCC(COC(=O)N(Cc1cccc[n+]1CC)C(=O)c1ccccc1OC)OC` (stereo not drawn) [Example 14, 1-Ethyl-2-[N-(2-methoxy)benzoyl-N-{2-methoxy-3-(3-octadecylcarbamoyloxy)propylcarbamoyloxy}propoxycarbonyl]aminomethylpyridinium chloride], the half-life in series [1] is 26.1 h. In addition, the inhibition in vivo at 0.01 mg/kg in series [2] came out at 96.8%. In addition, the IC50 came to 0.19 nM on Human PAF Receptor and 44 nM in series [3].

Consider `CC[n+]1ccccc1CN(C(=O)OCC(COCc1cc(OC)c(OCC2CCCCC2)c(OC)c1)OC)C(=O)c1ccccc1OC` (stereo not drawn) [Example 20, 1-ethyl-2-(((N-((3-(4-cyclohexylmethoxy-3,5-dimethoxy)benzyloxy-2-methoxy))propyloxycarbonyl-N-(2-methoxy)benzoyl))) aminomethylpyridinium chloride], for which the inhibition in vivo at 1 mg/kg in series [2] stood at 91.1%. Besides, the IC50 at Human PAF Receptor came out at 9.1 nM; in series [3], 250 nM.

As for `CC[n+]1ccccc1CN(C(=O)OCC(COC(=O)Nc1ccc2c(c1)Cc1ccccc1-2)OC)C(=O)c1ccccc1OC` (stereo not drawn) [Example 2, 1-Ethyl-2-[N-{3-(2-fluoreneamino)carbonyloxy-2-methoxypropyloxy}carbonyl-N-(2-methoxy)benzoyl]aminomethylpyridinium chloride], the inhibition in vivo at 0.01 mg/kg in series [2] worked out at 79.2%. The inhibition in vivo at 0.1 mg/kg in series [2] was 97.4%. The IC50 was 8.9 nM on Human PAF Receptor and 62 nM in series [3].

As for `CCCCCCCCCCCCCCCCCCOc1c(OC)cc(COCC(COC(=O)N(Cc2cccc[n+]2CC)C(=O)c2ccccc2OC)OC)cc1OC` (stereo not drawn) [Example 18, 1-ethyl-2-(((N-((3,5-dimethoxy-4-octadecyloxy)benzyloxy-2-methoxypropyloxy))carbonyl-N-(2-methoxy)benzoyl))) aminomethyl pyridinium chloride], in series [1], the half-life was 37.7 h. For the same compound, the inhibition in vivo at 0.01 mg/kg in series [2] was determined as 74.1%. The IC50 at Human PAF Receptor was 0.71 nM; in series [3], 660 nM.

For `CCCCCCCCCCCCCCCCCCNS(=O)(=O)c1ccc(CNC(=O)OCC(COC(=O)N(Cc2cccc[n+]2CC)C(=O)c2ccccc2OC)OC)cc1` (stereo not drawn) [Example 13, 1-Ethyl-2-[N-(2-methoxy)benzoyl-N-{2-methoxy-3-(4-octadecylsulfamoyl)benzylcarbamoyloxypropyloxy}carbonyl]aminomethylpyridinium chloride], in series [1], the half-life was 21.5 h. Also, the inhibition in vivo at 0.01 mg/kg in series [2] amounted to 89.7%. The “number of dead mice / number of mice (Survival rate)” value with lethal activity of PAF (0.03 mg/kg i.v.) is reported as 3/7; in the series with lethal activity of PAF (0.1 mg/kg i.v.) it was 0/7; in the series on lethal activity of PAF (0.3 mg/kg i.v.) it was 0/7. Further, the Survival rate was found to be 57.1% in the series with lethal activity of PAF (0.03 mg/kg i.v.), 100% with lethal activity of PAF (0.1 mg/kg i.v.) and 100% in the series on lethal activity of PAF (0.3 mg/kg i.v.). For the same compound, the IC50 at Human PAF Receptor came to 0.25 nM; in series [3] it was 72 nM.

On to `CC[n+]1ccccc1CN(C(C)=O)C(=O)OCC(COc1cc(OC)c(OC)c(OC)c1)OC` (stereo not drawn) [Example 17, 1-ethyl-2-(((N-acetyl-N-((2-methoxy-3-(3,4,5-trimethoxy)phenoxypropyloxy))carbonyl))) aminomethyl pyridium iodide], for which the inhibition in vivo at 1 mg/kg in series [2] amounted to 97.5%. Also, the IC50 on Human PAF Receptor was determined as 3500 nM; in series [3], 340 nM.

Regarding `CC[n+]1ccccc1CN(C(=O)OCC(COCc1ccc(-c2ccccc2)cc1)OC)C(=O)c1ccccc1OC` (stereo not drawn) [Example 19, 1-ethyl-2-(((N-((3-(4-biphenylmethyloxy-2-methoxypropyloxy))carbonyl-N-(2-methoxy)benzoyl)))aminomethylpyridinium chloride], in series [2], the inhibition in vivo at 1 mg/kg is 74.9%. Further, the IC50 amounted to 2.2 nM at Human PAF Receptor and 25 nM in series [3].

Turning to `CC[n+]1ccccc1CN(C(=O)OCC(COCc1cc(OC)c(OC)c(OC)c1)OC)C(=O)N(C)C` (stereo not drawn) [Example 22, 1-ethyl-2-(((N-(N,N-dimethyl)carbamyl-N-((2-methoxy-3-(3,4,5-trimethoxy)benzyloxypropyloxy))carbonyl))) aminomethylpyridinium iodide], in series [1], the “Half-value period of disappearance due to hydrolysis (t1/2)” value was “infinite”.

As for `CC[n+]1ccccc1CN1C(=O)CN(CC(COCc2cc(OC)c(OC)c(OC)c2)OC)C1=O` (stereo not drawn) [Example 23], the half-life in series [1] was 361 h. Also, the IC50 in series [3] was determined as 700 nM.

As to `CCCCCOCCCCCOCCCCCNC(=O)OCC(COC(=O)N(Cc1cccc[n+]1CC)C(=O)c1ccccc1OC)OC` (stereo not drawn) [Example 10, 1-Ethyl-2-[N-{3-(6,12-dioxaheptadecyl)carbamoyloxy-2-methoxypropyloxy}carbonyl-N-(2-methoxy)benzoyl]aminomethylpyridinium iodide], in series [2], the inhibition in vivo at 0.01 mg/kg worked out at 42.5% and the inhibition in vivo at 0.1 mg/kg worked out at 59.6%. Moreover, on Human PAF Receptor, the IC50 was 16 nM. Further, in series [3], the IC50 was 300 nM.

`CC[n+]1ccccc1CN(C(C)=O)C(=O)OCC(COCCc1cc(OC)c(OC)c(OC)c1)OC` (stereo not drawn) [Example 16]: the inhibition in vivo at 1 mg/kg in series [2] amounted to 67.8%. In addition, the IC50 at Human PAF Receptor was found to be 3500 nM; in series [3], 380 nM.
